Biological target: human NaV 1.8 channels stably expressed in HEK 293 cells (Homo sapiens (Human), UniProt Q9Y5Y9)
Test: Nav1.8 Qube automated patch-clamp assay
Assay type: cell-based
Settings: human NaV1.8 in HEK 293 cells, whole-cell voltage clamp, room temperature; read-out: IC50 values (nM) for Examples in the Nav1.8 Qube Assay
In short: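 Whole-cell voltage clamp at room temperature on HEK293 cells; from −90 mV, a 10 s 1 Hz train of 20 ms pulses to 10 mV (repolarising to −67 mV) was applied. Peak currents at pulses 1 and 10 gave resting- and inactivated-state inhibition; IC50 fitted by Hill equation. Internal CsF/CsCl buffer.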

Chain of human NaV 1.8 channels stably expressed in HEK 293 cells (Q9Y5Y9 whole entry): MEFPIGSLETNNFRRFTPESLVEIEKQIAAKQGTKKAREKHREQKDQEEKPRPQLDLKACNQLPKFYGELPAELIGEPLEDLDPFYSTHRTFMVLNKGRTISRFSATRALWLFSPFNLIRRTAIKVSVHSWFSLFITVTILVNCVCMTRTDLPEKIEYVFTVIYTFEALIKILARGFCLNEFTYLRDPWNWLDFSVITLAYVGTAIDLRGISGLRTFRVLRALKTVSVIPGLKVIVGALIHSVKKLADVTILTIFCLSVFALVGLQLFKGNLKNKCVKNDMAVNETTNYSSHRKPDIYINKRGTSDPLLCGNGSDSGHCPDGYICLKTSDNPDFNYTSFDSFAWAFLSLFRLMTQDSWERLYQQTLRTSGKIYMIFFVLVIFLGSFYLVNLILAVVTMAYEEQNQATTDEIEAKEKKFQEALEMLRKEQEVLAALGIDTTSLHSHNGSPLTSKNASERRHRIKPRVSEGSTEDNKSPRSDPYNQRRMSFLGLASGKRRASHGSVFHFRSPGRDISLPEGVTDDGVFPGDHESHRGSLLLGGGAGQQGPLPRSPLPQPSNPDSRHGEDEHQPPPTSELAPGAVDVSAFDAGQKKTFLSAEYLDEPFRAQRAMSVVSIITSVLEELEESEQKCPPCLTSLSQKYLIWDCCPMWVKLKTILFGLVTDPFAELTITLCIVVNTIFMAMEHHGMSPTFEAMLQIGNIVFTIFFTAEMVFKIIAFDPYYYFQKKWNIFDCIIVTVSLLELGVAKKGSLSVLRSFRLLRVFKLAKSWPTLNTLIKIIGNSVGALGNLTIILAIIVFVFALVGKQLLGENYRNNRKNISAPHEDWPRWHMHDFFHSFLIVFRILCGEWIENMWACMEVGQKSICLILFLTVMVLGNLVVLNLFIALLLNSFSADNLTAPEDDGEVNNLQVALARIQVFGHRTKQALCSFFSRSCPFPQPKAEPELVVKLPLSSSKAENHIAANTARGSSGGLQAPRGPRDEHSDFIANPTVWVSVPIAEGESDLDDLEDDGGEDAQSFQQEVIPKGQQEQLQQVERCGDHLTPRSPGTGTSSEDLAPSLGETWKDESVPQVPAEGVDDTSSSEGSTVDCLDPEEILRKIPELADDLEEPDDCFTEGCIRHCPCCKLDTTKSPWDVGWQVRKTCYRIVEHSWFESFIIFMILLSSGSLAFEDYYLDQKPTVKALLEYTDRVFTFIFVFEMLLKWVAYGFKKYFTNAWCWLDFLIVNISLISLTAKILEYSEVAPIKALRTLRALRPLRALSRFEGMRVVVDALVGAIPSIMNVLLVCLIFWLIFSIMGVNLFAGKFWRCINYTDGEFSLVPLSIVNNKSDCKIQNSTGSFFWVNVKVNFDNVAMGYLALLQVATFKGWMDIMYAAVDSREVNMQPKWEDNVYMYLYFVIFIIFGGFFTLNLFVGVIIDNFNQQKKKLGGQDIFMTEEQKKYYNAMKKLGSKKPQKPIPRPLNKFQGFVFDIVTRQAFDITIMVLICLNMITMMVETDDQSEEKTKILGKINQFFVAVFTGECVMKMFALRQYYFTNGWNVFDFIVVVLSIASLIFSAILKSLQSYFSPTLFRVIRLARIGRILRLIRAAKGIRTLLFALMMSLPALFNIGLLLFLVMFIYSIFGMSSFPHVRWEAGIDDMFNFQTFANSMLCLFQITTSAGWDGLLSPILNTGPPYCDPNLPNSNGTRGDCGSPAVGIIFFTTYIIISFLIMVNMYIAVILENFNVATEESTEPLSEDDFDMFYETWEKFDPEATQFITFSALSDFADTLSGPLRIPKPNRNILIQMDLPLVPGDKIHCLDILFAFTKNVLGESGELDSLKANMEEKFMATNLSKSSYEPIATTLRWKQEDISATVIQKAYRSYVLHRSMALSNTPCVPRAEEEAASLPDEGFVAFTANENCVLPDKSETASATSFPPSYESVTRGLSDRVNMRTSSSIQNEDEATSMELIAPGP

With `C[C@@H]1C(=O)NCCN1C(=O)NC(c1ccc(F)c(C(F)(F)F)n1)c1ccc(F)c(Cl)c1F` (single isomer, unassigned) [Example 60B, (2R)-N-((S or R)-(3-chloro-2,4-difluoro-phenyl)(5-fluoro-6-(trifluoromethyl)pyridin-2-yl)methyl)-2-methyl-3-oxopiperazine-1-carboxamide] the IC50 was 8.29 nM.

With `C[C@@H]1C(=O)NCCN1C(=O)NC(c1ccc(C(F)(F)F)nc1)c1ccc(Cl)c(Cl)c1` (single isomer, unassigned) [Example 18A, (2R)-N-((R or S)-(3,4-dichlorophenyl)(6-(trifluoromethyl)pyridin-3-yl)methyl)-2-methyl-3-oxopiperazine-1-carboxamide] the IC50 was 3.89 nM.

`C[C@@H]1C(=O)NCCN1C(=O)NC(c1ccc(Cl)c(C#N)c1)c1ccc(F)c(C(F)(F)F)n1` (single isomer, unassigned) [Example 52A, (2R)-N-((R or S)-(4-chloro-3-cyano-phenyl)(5-fluoro-6-(trifluoromethyl)pyridin-2-yl)methyl)-2-methyl-3-oxopiperazine-1-carboxamide] gave an IC50 of 5.79 nM.

In the case of `C[C@@H]1C(=O)NCCN1C(=O)NC(c1cnc(C(F)(F)F)c(Cl)c1)c1ccc(F)c(C(F)(F)F)n1` (single isomer, unassigned) [Example 82B], the IC50 was 3.76 nM.

With `O=C1NCCN(C(=O)NC(c2cnc(C(F)(F)F)c(F)c2)c2ccc(F)c(Cl)c2F)C1C1CC1` (single isomer, unassigned) [Example 37B, N-((R or S)-(3-chloro-2,4-difluorophenyl)(5-fluoro-6-(trifluoro-methyl)pyridin-3-yl)methyl)-(S or R)-2-cyclopropyl-3-oxopiperazine-1-carboxamide] the IC50 was 188 nM.

`C[C@@H]1C(=O)NCCN1C(=O)NC(c1ccc(OCC(F)(F)F)nc1)c1ccc(F)c(Cl)c1` (single isomer, unassigned) [Example 3B, (2R)-N-((S or R)-(3-chloro-4-fluorophenyl)(6-(2,2,2-trifluoro-ethoxy)pyridin-3-yl)methyl)-2-methyl-3-oxopiperazine-1-carboxamide] was tested, and the IC50 was 21.9 nM.

`C[C@@H]1C(=O)NCCN1C(=O)NC(c1ccc(OC(F)(F)F)c(F)c1)c1ccc(F)c(C(F)(F)F)n1` (single isomer, unassigned) [Example 56A, (2R)-N-((R or S)-(3-fluoro-4-(trifluoro-methoxy)phenyl)(5-fluoro-6-(trifluoro-methyl)pyridin-2-yl)methyl)-2-methyl-3-oxopiperazine-1-carboxamide] showed an IC50 of 11.7 nM.

In the case of `C[C@@H]1C(=O)NCCN1C(=O)NC(c1ccc(C#N)c(Cl)c1)c1cnc(C(F)(F)F)c(Cl)c1` (single isomer, unassigned) [Example 24B, (2R)-N-((S or R)-(3-chloro-4-cyano-phenyl)(5-chloro-6-(trifluoromethyl)pyridin-3-yl)methyl)-2-methyl-3-oxopiperazine-1-carboxamide], the IC50 was 2.84 nM.

For `C[C@@H]1C(=O)NCCN1C(=O)NC(c1ccc(OC(F)(F)F)nc1)c1ccc(F)c(C(F)(F)F)n1` (single isomer, unassigned) [Example 51A, (2R)-N-((R or S)-(5-fluoro-6-(trifluoromethyl)pyridin-2-yl)(6-(trifluoro-methoxy)pyridin-3-yl)methyl)-2-methyl-3-oxopiperazine-1-carboxamide], the IC50 was 129 nM.

Molecule `C[C@@H]1C(=O)NCCN1C(=O)NC(c1ccc(Cl)cc1)c1ccc(C(F)(F)F)nc1` (single isomer, unassigned) [Example 17B, (2R)-N-((S or R)-(4-chlorophenyl)(6-(trifluoromethyl)pyridin-3-yl)methyl)-2-methyl-3-oxopiperazine-1-carboxamide] has an IC50 of 34.6 nM.

Molecule `C[C@@H]1C(=O)NCCN1C(=O)NC(c1ccc(OC(F)(F)F)c(Cl)c1)c1cnn(C(F)(F)F)c1` (single isomer, unassigned) [Example 63A, (2R)-N-((R or S)-(3-chloro-4-(trifluoro-methoxy)phenyl)(1-(trifluoromethyl)-1H-pyrazol-4-yl)methyl)-2-methyl-3-oxopiperazine-1-carboxamide] has an IC50 of 1.12 nM.

Molecule `C[C@@H]1C(=O)NCCN1C(=O)NC(c1cnc(C2CC2)c(Cl)c1)c1ccc(F)c(Cl)c1F` (single isomer, unassigned) [Example 27B, (2R)-N-((S or R)-(3-chloro-2,4-difluorophenyl)(5-chloro-6-cyclopropylpyridin-3-yl)methyl)-2-methyl-3-oxopiperazine-1-carboxamide] has an IC50 of 2.88 nM.

For `O=C1CN(C(=O)NC(c2ccc(F)c(Cl)c2)c2cccc(C(F)(F)F)n2)CCN1` (single isomer, unassigned) [Example 42, N—((R or S)-(3-chloro-4-fluorophenyl)(6-(trifluoromethyl)pyridin-2-yl)methyl)-3-oxopiperazine-1-carboxamide], the IC50 was 32.2 nM.

With `C[C@@H]1C(=O)NCCN1C(=O)NC(c1ccc(OCC(F)(F)F)nc1)c1ccc(F)c(Cl)c1` (single isomer, unassigned) [Example 3A, (2R)-N-((R or S)-(3-chloro-4-fluorophenyl)(6-(2,2,2-trifluoro-ethoxy)pyridin-3-yl)methyl)-2-methyl-3-oxopiperazine-1-carboxamide] the IC50 was 2.22 nM.

`C[C@@H]1C(=O)NCCN1C(=O)NC(c1ccc(F)c(Cl)c1)c1ccc(F)c(OCC(F)(F)F)n1` (single isomer, unassigned) [Example 70A] showed an IC50 of 51.4 nM.

Molecule `C[C@@H]1C(=O)NCCN1C(=O)NC(c1ccnc(OCC(F)(F)F)c1)c1ccc(F)c(Cl)c1` (single isomer, unassigned) [Example 71B, (2R)-N-((S or R)-(3-chloro-4-fluorophenyl)(2-(2,2,2-trifluoro-ethoxy)pyridin-4-yl)methyl)-2-methyl-3-oxopiperazine-1-carboxamide] has an IC50 of 2.76 nM.

Work on `C[C@@H]1C(=O)NCCN1C(=O)NC(c1cnc(OC(F)F)s1)c1ccc(F)c(Cl)c1F` (single isomer, unassigned) [Example 14A, (2R)-N-((R or S)-(3-chloro-2,4-difluorophenyl)(2-(difluoromethoxy)thiazol-5-yl)methyl)-2-methyl-3-oxopiperazine-1-carboxamide] yielded an IC50 of 5.57 nM.

`C[C@@H]1C(=O)NCCN1C(=O)NC(c1cnc(OCC(F)(F)F)nc1)c1ccc(F)c(Cl)c1F` (single isomer, unassigned) [Example 12A] showed an IC50 of 9.24 nM.

With `C[C@@H]1C(=O)NCCN1C(=O)NC(c1ccc(Cl)cc1)c1ccnc(C(F)(F)F)n1` (single isomer, unassigned) [Example 68B] the IC50 was 761 nM.

With `C[C@@H]1C(=O)NCCN1C(=O)NC(c1ccc(OC(F)F)nc1)c1ccc(F)c(Cl)c1` (single isomer, unassigned) [Example 73A, (2R)-N-((R or S)-(3-chloro-4-fluorophenyl)(6-(difluoromethoxy)pyridin-3-yl)methyl)-2-methyl-3-oxopiperazine-1-carboxamide] the IC50 was 7.01 nM.

Work on `C[C@@H]1C(=O)NCCN1C(=O)NC(c1cnc(OCC(F)(F)F)c(F)c1)c1ccc(F)c(C(F)(F)F)n1` (single isomer, unassigned) [Example 48A] yielded an IC50 of 4.78 nM.

`C[C@@H]1C(=O)NCCN1C(=O)NC(c1cnc(C(F)(F)F)c(Cl)c1)c1ccc(Cl)c(C#N)c1` (single isomer, unassigned) [Example 23B, (2R)-N-((S or R)-(4-chloro-3-cyano-phenyl)(5-chloro-6-(trifluoromethyl)pyridin-3-yl)methyl)-2-methyl-3-oxopiperazine-1-carboxamide] gave an IC50 of 6.06 nM.

For `C[C@@H]1C(=O)NCCN1C(=O)NC(c1ccc(OC(F)(F)F)c(F)c1)c1cnc(C(F)(F)F)c(Cl)c1` (single isomer, unassigned) [Example 21A, (2R)-N-((R or S)-(5-chloro-6-(trifluoro-methyl)pyridin-3-yl)(3-fluoro-4-(trifluoromethoxy)phenyl)methyl)-2-methyl-3-oxopiperazine-1-carboxamide], the IC50 was 1.45 nM.

In the case of `C[C@@H]1C(=O)NCCN1C(=O)NC(c1cnc(C(F)(F)F)c(Cl)c1)c1csc(C(F)(F)F)n1` (single isomer, unassigned) [Example 84A, (2R)-N-((R or S)-(5-chloro-6-(trifluoromethyl)pyridin-3-yl)(2-(trifluoromethyl)thiazol-4-yl)methyl)-2-methyl-3-oxopiperazine-1-carboxamide], the IC50 was 16.2 nM.

For `C[C@H]1CN(C(=O)NC(c2ccc(F)c(Cl)c2)c2cccc(C(F)(F)F)n2)CC(=O)N1` (single isomer, unassigned) [Example 46A, (3S)-N-((R or S)-(3-chloro-4-fluoro-phenyl)(6-(trifluoro-methyl)pyridin-2-yl)methyl)-3-methyl-5-oxopiperazine-1-carboxamide], the IC50 was 924 nM.

With `C[C@@H]1C(=O)NCCN1C(=O)NC(c1cnc(C(F)(F)F)c(Cl)c1)c1ccc(Cl)c(C#N)c1` (single isomer, unassigned) [Example 23A, (2R)-N-((R or S)-(4-chloro-3-cyano-phenyl)(5-chloro-6-(trifluoromethyl)pyridin-3-yl)methyl)-2-methyl-3-oxopiperazine-1-carboxamide] the IC50 was 17 nM.

`CC1(C)C(=O)NCCN1C(=O)NC(c1ccc(F)c(Cl)c1)c1cccc(C(F)(F)F)n1` (single isomer, unassigned) [Example 43, N-((R or S)-(3-chloro-4-fluorophenyl)(6-(trifluoromethyl)pyridin-2-yl)methyl)-2,2-dimethyl-3-oxopiperazine-1-carboxamide] was tested, and the IC50 was 230 nM.

`C[C@@H]1C(=O)NCCN1C(=O)NC(c1cnc(C(F)(F)F)s1)c1ccc(F)c(Cl)c1F` (single isomer, unassigned) [Example 62A] was tested, and the IC50 was 197 nM.

Molecule `O=C1CN(C(=O)NC(c2ccc(F)c(Cl)c2)c2ccc(Cl)c(C(F)(F)F)n2)CCN1` (single isomer, unassigned) [Example 80, N-((R or S)-(3-chloro-4-fluorophenyl)(5-chloro-6-(trifluoromethyl)pyridin-2-yl)methyl)-3-oxopiperazine-1-carboxamide] has an IC50 of 1.9 nM.
